Data as given in ChEMBL document CHEMBL4130605, “7α,20-Epoxy-ent-kaurane Diterpenoids from the Aerial Parts of Isodon pharicus” (J Nat Prod, 2018).

Experiments:
Assay type in all cases: functional, cell-based
MCF7 = assay: Cytotoxicity against human MCF7 cells after 48 hrs by MTS assay; settings: MCF7, 48 h
A549 = assay: Cytotoxicity against human A549 cells after 48 hrs by MTS assay; settings: A549, 48 h
SW480 = assay: Cytotoxicity against human SW480 cells after 48 hrs by MTS assay; settings: SW480, 48 h
SMMC-7721 = assay: Cytotoxicity against human SMMC7721 cells after 48 hrs by MTS assay; settings: SMMC-7721, 48 h
HL-60 = assay: Cytotoxicity against human HL60 cells after 48 hrs by MTS assay; settings: HL-60, 48 h

Structure (SMILES) | IC50 (MCF7) [µM] | IC50 (A549) [µM] | IC50 (SW480) [µM] | IC50 (SMMC-7721) [µM] | IC50 (HL-60) [µM]
COC[C@H]1C(=O)[C@]23C[C@H]1CC[C@H]2[C@@]12CO[C@@]3(O)[C@@H](O)[C@@H]1[C@](C)(COC(C)=O)CC[C@@H]2O (mixture of isomers) | 16 | 14.5 | 9.68 | 12.3 | 18
COC[C@H]1C(=O)[C@]23[C@H](O)[C@H]1CC[C@H]2[C@@]12CO[C@@]3(O)[C@@H](O)[C@@H]1[C@](C)(CO)CC[C@@H]2O (relative stereo) | > 10 | > 10 | > 10 | > 10 | > 10
C=C1[C@@H]2C[C@H](O)[C@H]3[C@@]45CO[C@@](O)([C@@H](O)[C@@H]4C(C)(C)CC[C@@H]5OC(C)=O)[C@]3(C2)[C@@H]1O | > 10 | > 10 | > 10 | > 10 | > 10
CC(=O)O[C@H]1C(=O)[C@@]2(C)[C@H]([C@H](OC(=O)c3ccccc3)[C@]3(O)C[C@H](OC(=O)[C@H](O)[C@@H](NC(=O)c4ccccc4)c4ccccc4)C(C)=C1C3(C)C)[C@]1(OC(C)=O)CO[C@@H]1C[C@@H]2O [PACLITAXEL] | < 0.008 | < 0.008 | < 0.008 | < 0.008 | < 0.008
C=C1C(=O)[C@]23C[C@H]1C[C@H](O)[C@H]2[C@@]12CO[C@@]3(O)C[C@@H]1C(C)(C)CC[C@@H]2O [RABDOCOETSIN C] | 5.29 | 9.62 | 1.8 | 9.04 | 4.24
C=C1C(=O)[C@]23[C@H](O)[C@H]1[C@@H](O)C[C@H]2[C@]12CCC[C@@](C)(CO)[C@H]1[C@H](O)[C@]3(O)OC2 | > 10 | > 10 | > 10 | > 10 | > 10
C=C1C(=O)[C@]23[C@H](O)[C@H]1CC[C@H]2[C@@]12CO[C@@]3(O)[C@@H](O)[C@@H]1[C@](C)(CO)CC[C@@H]2O | > 10 | > 10 | > 10 | > 10 | > 10
C=C1[C@@H](O)[C@]23[C@H](O)[C@H]1CC[C@H]2[C@@]12CO[C@@]3(O)[C@@H](O)[C@@H]1[C@](C)(COC(C)=O)CC[C@@H]2O | > 10 | > 10 | > 10 | > 10 | > 10
C=C1C(=O)[C@]23C[C@H]1CC[C@H]2[C@@]12CO[C@@]3(O)[C@@H](O)[C@@H]1[C@](C)(COC(C)=O)CC[C@@H]2OC(C)=O | 2.96 | 3.61 | 1.01 | 2.03 | 2.43
C=C1[C@@H](O)[C@]23[C@H](O)[C@H]1C[C@H](OC(C)=O)[C@H]2[C@]12CCC[C@@](C)(COC(C)=O)[C@H]1[C@H](O)[C@]3(O)O[C@@H]2O (relative stereo) | > 10 | > 10 | > 10 | > 10 | > 10
COC[C@H]1C(=O)[C@]23C[C@@H]1CC[C@H]2[C@@]12CO[C@]3(O)[C@@H](O)[C@@H]1C(C)(C)CC[C@@H]2O | 13.8 | 14.3 | 7.83 | 14.6 | 17.2
C=C1[C@@H](O)[C@]23[C@H](O)[C@H]1C[C@H](OC(C)=O)[C@H]2[C@]12CCC[C@@](C)(COC(C)=O)[C@H]1[C@H](OC(C)=O)[C@]3(O)O[C@@H]2O (relative stereo) | 3.86 | 6.23 | 3.17 | 2.69 | 5.53
COC[C@H]1C(=O)[C@]23C[C@H]1CC[C@H]2[C@@]12CO[C@@]3(O)[C@@H](O)[C@@H]1C(C)(C)CC[C@@H]2OC(C)=O (relative stereo) | 3.2 | 6.8 | 1.23 | 3.99 | 3.77
C=C1[C@@H](O)[C@]23[C@H](O)[C@H]1C[C@H](OC(C)=O)[C@H]2[C@]12CCCC(C)(C)[C@H]1[C@H](O)[C@]3(O)O[C@@H]2OCC (relative stereo) | > 10 | > 10 | > 10 | > 10 | > 10
C=C1C(=O)[C@]23[C@H](O)[C@H]1CC[C@H]2[C@]12CC[C@@H](O)[C@@](C)(COC(C)=O)[C@H]1[C@H](O)[C@]3(O)OC2 | > 10 | > 10 | > 10 | > 10 | > 10
C=C1C(=O)[C@]23C[C@H]1CC[C@H]2[C@]12CC[C@@H](O)[C@@](C)(COC(C)=O)[C@H]1[C@H](O)[C@]3(O)OC2 | 14.7 | 16 | 3.74 | 14.2 | 12.5
COC[C@@H]1C(=O)[C@]23[C@H](O)[C@H]1CC[C@H]2[C@@]12CO[C@@]3(O)[C@@H](O)[C@@H]1[C@](C)(CO)CC[C@@H]2O (relative stereo) | > 10 | > 10 | > 10 | > 10 | > 10
COC[C@@H]1C(=O)[C@]23C[C@H]1CC[C@H]2[C@@]12CO[C@@]3(O)[C@@H](O)[C@@H]1C(C)(C)CC[C@@H]2OC(C)=O (single isomer, unassigned) | > 10 | > 10 | > 10 | > 10 | > 10
C=C1[C@@H](O)[C@]23[C@H](O)[C@H]1C[C@H](OC(C)=O)[C@H]2[C@]12CCCC(C)(C)[C@H]1[C@H](O)[C@]3(O)O[C@@H]2O (relative stereo) | > 10 | > 10 | > 10 | > 10 | > 10
C=C1C(=O)[C@]23C[C@H]1C[C@@H](OC(C)=O)[C@H]2[C@@]12CO[C@@]3(O)[C@@H](O)[C@@H]1C(C)(C)CC[C@@H]2O | 14.1 | 12.1 | 2.34 | 12.7 | 5.36
COC[C@H]1C(=O)[C@]23[C@H](O)[C@H]1[C@@H](O)C[C@H]2[C@]12CCC[C@@](C)(COC(C)=O)[C@H]1[C@H](O)[C@]3(O)OC2 (relative stereo) | > 10 | > 10 | > 10 | > 10 | > 10
COC[C@@H]1C(=O)[C@]23[C@H](O)[C@H]1[C@@H](O)C[C@H]2[C@]12CCC[C@@](C)(CO)[C@H]1[C@H](O)[C@]3(O)OC2 | > 10 | > 10 | > 10 | > 10 | > 10
C=C1C(=O)[C@]23[C@H](O)[C@H]1CC[C@H]2[C@]12CC[C@@H](OC(C)=O)[C@@](C)(CO)[C@H]1[C@H](O)[C@]3(O)OC2 | > 10 | > 10 | > 10 | > 10 | > 10
C=C1C(=O)[C@]23[C@H](O)[C@H]1CC[C@H]2[C@]12CC[C@@H](O)[C@@](C)(CO)[C@H]1[C@H](O)[C@]3(O)OC2 | > 10 | > 10 | > 10 | > 10 | > 10
C=C1[C@H]2C[C@@]3([C@@H]1O)[C@@H](C[C@@H]2O)[C@]12CCC[C@@](C)(COC(C)=O)[C@H]1[C@H](O)[C@]3(O)OC2 | > 10 | > 10 | > 10 | > 10 | > 10
C=C1C(=O)[C@]23[C@H](O)[C@H]1CC[C@H]2[C@@]12CO[C@@]3(O)[C@@H](O)[C@@H]1[C@](C)(COC(C)=O)CC[C@@H]2O | > 10 | > 10 | > 10 | > 10 | > 10
